# From patent US20140120083A1, “TREATMENT OF CANCERS USING PI3 KINASE ISOFORM MODULATORS” (INFINITY PHARMACEUTICALS, INC., priority 2012, published 2014)
# Assays:
# Assay type in all cases: biochemical
# PI3K γ = molecular target: T1, PI3K γ (Homo sapiens, UniProt P48736); assay: In vitro IC50, PI3K γ
# T1 construct: purchased Sigma
# Source text: (§1) An exemplary system is PI 3-Kinase (human) HTRF™ Assay from Upstate.
# PI3K α = molecular target: T2, PI3K α (Homo sapiens, UniProt P42336); assay: In vitro IC50, PI3K α
# T2 construct: purchased Upstate
# Source text: as §1
# PI3K β = PI3K β (Homo sapiens, UniProt P42338); assay: In vitro IC50, PI3K β
# Source text: as §1
# PI3K δ = PI3K δ (Homo sapiens, UniProt O00329); assay: In vitro IC50, PI3K δ; design: purchased Upstate
# Source text: as §1
# T2 sequence (P42336 whole entry): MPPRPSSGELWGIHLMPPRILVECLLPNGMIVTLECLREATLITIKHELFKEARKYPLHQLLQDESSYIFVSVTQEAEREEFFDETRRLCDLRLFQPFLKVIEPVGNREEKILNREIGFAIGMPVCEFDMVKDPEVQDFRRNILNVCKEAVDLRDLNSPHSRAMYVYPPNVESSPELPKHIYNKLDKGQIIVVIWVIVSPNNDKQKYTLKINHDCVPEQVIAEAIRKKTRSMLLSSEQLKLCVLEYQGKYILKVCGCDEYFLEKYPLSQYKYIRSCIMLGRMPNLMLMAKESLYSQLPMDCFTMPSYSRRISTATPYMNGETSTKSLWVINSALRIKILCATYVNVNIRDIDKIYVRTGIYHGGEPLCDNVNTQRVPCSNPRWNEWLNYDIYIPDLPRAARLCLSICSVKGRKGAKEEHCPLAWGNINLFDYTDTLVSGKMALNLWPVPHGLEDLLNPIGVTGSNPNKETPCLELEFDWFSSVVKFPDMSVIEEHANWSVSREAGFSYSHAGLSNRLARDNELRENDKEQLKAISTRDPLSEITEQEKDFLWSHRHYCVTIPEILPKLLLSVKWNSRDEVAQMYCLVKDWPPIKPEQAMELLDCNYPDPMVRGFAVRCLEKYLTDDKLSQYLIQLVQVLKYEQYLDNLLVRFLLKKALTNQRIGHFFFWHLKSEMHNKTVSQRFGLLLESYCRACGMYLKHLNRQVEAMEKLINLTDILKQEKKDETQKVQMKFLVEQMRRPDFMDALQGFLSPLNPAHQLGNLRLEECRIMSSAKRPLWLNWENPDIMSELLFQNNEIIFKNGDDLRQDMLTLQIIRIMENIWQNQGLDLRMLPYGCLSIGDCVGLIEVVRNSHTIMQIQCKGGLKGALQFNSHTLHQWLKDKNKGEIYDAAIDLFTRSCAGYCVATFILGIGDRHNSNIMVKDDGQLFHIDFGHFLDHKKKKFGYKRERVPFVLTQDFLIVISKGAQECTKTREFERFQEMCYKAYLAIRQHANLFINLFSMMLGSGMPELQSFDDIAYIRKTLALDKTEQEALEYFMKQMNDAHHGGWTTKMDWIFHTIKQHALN
# T2 sequence (P27986 whole entry partner): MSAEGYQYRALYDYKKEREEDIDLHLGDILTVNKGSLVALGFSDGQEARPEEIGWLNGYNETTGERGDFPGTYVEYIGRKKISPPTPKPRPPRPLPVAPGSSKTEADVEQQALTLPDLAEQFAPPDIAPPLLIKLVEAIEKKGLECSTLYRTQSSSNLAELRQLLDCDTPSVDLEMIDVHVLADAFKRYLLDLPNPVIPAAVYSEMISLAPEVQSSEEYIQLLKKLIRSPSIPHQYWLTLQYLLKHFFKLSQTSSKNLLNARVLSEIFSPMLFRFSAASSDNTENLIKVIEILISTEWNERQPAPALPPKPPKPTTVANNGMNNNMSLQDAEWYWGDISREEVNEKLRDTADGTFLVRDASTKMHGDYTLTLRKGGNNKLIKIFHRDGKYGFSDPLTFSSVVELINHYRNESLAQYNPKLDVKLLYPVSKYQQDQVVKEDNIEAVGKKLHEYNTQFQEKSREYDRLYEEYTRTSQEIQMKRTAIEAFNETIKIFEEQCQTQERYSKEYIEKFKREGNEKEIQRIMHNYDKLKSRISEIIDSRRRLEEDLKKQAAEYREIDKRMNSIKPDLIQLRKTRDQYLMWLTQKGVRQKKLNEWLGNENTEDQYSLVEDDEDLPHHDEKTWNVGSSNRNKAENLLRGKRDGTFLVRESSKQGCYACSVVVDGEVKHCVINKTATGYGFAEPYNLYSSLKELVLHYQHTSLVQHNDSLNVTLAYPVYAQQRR
# Chain of PI3K β (P42338 whole entry): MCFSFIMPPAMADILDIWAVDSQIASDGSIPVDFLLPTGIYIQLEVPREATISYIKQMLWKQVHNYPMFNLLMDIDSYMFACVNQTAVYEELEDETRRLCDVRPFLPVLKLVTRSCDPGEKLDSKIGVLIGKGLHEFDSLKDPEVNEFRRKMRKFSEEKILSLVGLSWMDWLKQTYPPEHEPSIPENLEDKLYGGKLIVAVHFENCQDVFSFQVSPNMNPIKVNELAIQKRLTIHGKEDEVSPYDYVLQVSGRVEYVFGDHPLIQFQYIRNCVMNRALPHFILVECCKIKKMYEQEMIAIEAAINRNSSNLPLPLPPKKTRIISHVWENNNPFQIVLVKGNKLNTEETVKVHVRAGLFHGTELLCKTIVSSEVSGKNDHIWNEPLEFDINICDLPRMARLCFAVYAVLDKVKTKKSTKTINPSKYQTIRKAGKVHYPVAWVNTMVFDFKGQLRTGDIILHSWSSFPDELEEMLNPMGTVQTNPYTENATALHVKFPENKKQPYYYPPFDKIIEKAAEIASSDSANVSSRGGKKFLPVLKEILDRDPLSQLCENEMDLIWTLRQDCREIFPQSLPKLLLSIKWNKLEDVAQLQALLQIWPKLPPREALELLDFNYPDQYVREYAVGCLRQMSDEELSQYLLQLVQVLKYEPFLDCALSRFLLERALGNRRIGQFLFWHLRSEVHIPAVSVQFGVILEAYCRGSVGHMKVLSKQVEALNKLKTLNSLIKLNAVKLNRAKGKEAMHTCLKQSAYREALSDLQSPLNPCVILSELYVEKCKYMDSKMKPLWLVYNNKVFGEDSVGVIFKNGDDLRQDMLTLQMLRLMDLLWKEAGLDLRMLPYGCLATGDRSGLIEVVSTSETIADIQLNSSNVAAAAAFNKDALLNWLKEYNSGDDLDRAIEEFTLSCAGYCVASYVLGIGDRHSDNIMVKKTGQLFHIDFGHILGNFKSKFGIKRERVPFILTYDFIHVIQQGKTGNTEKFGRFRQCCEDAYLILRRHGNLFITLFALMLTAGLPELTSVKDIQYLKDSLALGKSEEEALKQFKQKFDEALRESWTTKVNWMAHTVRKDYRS
# T1 sequence (P48736 whole entry): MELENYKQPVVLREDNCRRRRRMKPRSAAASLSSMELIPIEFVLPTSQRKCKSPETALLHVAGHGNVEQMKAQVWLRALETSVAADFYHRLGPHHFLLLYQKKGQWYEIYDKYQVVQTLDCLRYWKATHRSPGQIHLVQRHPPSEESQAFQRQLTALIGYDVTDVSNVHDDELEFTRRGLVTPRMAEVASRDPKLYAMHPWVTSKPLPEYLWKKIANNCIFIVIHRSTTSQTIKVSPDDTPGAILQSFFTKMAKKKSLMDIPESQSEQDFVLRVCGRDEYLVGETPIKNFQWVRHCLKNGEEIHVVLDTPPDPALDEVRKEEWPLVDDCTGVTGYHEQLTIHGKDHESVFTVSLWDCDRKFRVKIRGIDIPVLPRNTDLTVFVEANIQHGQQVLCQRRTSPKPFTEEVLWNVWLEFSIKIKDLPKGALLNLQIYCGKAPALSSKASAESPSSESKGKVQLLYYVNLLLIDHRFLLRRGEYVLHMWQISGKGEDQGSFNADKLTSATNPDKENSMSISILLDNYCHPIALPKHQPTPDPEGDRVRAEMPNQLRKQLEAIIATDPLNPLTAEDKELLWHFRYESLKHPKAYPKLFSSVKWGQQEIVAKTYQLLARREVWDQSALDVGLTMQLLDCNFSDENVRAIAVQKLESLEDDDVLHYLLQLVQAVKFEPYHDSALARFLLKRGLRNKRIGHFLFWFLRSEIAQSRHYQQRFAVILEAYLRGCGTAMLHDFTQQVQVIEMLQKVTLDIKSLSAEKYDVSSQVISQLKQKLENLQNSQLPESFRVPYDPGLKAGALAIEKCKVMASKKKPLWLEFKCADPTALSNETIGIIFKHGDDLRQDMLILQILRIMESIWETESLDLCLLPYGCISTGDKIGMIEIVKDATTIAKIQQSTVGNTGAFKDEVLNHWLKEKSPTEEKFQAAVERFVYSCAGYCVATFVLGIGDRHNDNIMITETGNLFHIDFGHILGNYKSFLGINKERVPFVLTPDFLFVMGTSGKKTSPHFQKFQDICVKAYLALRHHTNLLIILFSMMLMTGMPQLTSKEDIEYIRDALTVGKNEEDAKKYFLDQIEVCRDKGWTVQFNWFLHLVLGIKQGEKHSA
# Chain of PI3K δ (O00329 whole entry): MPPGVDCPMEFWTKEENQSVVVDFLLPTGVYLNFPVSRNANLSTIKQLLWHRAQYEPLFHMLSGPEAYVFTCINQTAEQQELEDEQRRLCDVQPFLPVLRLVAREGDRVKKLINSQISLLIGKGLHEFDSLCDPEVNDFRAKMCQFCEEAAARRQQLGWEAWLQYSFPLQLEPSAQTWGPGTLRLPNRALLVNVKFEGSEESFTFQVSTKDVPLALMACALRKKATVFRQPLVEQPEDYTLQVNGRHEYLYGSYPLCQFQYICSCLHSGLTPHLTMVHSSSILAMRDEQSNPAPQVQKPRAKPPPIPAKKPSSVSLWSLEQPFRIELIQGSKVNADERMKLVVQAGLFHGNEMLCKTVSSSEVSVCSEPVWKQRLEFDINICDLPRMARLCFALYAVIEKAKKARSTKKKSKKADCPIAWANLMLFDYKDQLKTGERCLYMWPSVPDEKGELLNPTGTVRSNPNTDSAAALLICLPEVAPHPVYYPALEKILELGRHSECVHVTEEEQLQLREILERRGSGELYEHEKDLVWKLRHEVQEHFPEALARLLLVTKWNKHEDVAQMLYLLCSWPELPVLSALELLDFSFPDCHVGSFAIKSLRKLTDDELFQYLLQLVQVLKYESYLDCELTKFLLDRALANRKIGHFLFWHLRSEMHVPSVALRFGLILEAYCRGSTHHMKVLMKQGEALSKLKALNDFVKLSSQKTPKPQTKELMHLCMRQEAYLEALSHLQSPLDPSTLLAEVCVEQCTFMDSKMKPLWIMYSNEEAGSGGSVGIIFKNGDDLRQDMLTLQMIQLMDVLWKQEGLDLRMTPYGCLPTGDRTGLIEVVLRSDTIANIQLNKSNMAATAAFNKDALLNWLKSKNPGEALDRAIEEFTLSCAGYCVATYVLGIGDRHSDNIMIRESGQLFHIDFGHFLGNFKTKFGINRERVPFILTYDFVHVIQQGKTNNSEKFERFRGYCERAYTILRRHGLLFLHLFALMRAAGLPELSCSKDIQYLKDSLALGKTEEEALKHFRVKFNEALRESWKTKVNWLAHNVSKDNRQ
# Chain of PI3K δ (P27986 whole entry partner): as the sequence (P27986 whole entry partner) above
Compound,IC50 (PI3K γ),IC50 (PI3K α),IC50 (PI3K β),IC50 (PI3K δ)
Cc1cccc2cc([C@H](C)Nc3ncnc4[nH]cc(Br)c34)n(-c3ccccc3)c(=O)c12 [Compound 257],< 100 nM,< 1 µM,< 0.1 µM,< 100 nM
Cc1cccc2cc([C@H](C)NC3CCOCC3)n(-c3ccccc3)c(=O)c12 [Compound 259],> 10000 nM,> 10 µM,> 10 µM,> 10000 nM
Cc1cccc2cc([C@H](C)Nc3ncnc4[nH]cnc34)n(-c3ccc(F)cc3)c(=O)c12 [Compound 260],< 100 nM,< 1 µM,< 0.1 µM,< 100 nM
Cc1cccc2cc([C@H](C)Nc3ncnc4[nH]c(Cl)nc34)n(-c3ccccc3)c(=O)c12 [Compound 261],< 10000 nM,> 10 µM,> 10 µM,> 10000 nM
Cc1cccc2cc([C@H](C)Nc3ncnc4[nH]cc(Cl)c34)n(-c3ccccc3)c(=O)c12 [Compound 262],< 100 nM,< 1 µM,< 0.1 µM,< 100 nM
Cc1cccc2cc([C@H](C)Nc3ncnc4[nH]c(O)nc34)n(-c3ccccc3)c(=O)c12 [Compound 263],> 10000 nM,> 10 µM,> 10 µM,> 10000 nM
Cc1cccc2cc([C@H](C)Nc3ncnc4[nH]cc(C#N)c34)n(-c3ccccc3)c(=O)c12 [Compound 264],< 100 nM,< 1 µM,< 0.1 µM,< 100 nM
CC(=O)Nc1nc2ccc(-c3nn(Cc4cc5cccc(C)c5c(=O)n4-c4ccccc4C)c4ncnc(N)c34)cc2o1 [Compound 266],< 100 nM,> 10 µM,> 10 µM,< 100 nM
Cc1cccc2cc([C@H](C)Nc3nc(N)ncc3Cl)n(C3CC3)c(=O)c12 [Compound 267],< 1000 nM,> 10 µM,< 1 µM,< 100 nM
Cc1cccc2cc([C@H](C)Nc3nc(Cl)nc4[nH]cnc34)n(C3CC3)c(=O)c12 [Compound 268],< 1000 nM,> 10 µM,< 0.1 µM,< 100 nM
CC(=O)Nc1nc2ccc(-c3nn(Cc4cc5cccc(C)c5c(=O)n4-c4ccccc4)c4ncnc(N)c34)cc2o1 [Compound 269],< 1000 nM,< 10 µM,< 10 µM,< 1000 nM
C[C@H](Nc1ncnc2[nH]cnc12)c1cc2cccc(Cl)c2c(=O)n1C1CC1 [Compound 270],< 100 nM,< 1 µM,< 0.1 µM,< 100 nM
Cc1cccc2cc([C@H](C)Nc3nc(N)ncc3F)n(-c3ccccc3)c(=O)c12 [Compound 271],< 1000 nM,> 10 µM,> 10 µM,< 100 nM
Cc1cccc2cc([C@H](C)Nc3ncnc4[nH]cc(Br)c34)n(C3CC3)c(=O)c12 [Compound 272],< 100 nM,< 1 µM,< 0.1 µM,< 100 nM
Cc1cccc2cc([C@H](C)Nc3ncnc4[nH]ccc34)n(C3CC3)c(=O)c12 [Compound 273],< 100 nM,< 10 µM,< 0.1 µM,< 100 nM
CC(=O)Nc1nc2cc(-c3nn(Cc4cc5cccc(C)c5c(=O)n4-c4ccccc4C)c4ncnc(N)c34)ccc2s1 [Compound 274],< 10000 nM,> 10 µM,< 10 µM,< 1000 nM
CC(=O)Nc1nc2cc(-c3nn(Cc4cc5cccc(C)c5c(=O)n4-c4ccccc4)c4ncnc(N)c34)ccc2s1 [Compound 275],< 1000 nM,> 10 µM,> 10 µM,< 1000 nM
Cc1ccccc1-n1c(Cn2nc(-c3ccc4sc(N)nc4c3)c3c(N)ncnc32)cc2cccc(C)c2c1=O [Compound 276],< 100 nM,< 1 µM,< 1 µM,< 100 nM
Cc1cccc2cc(Cn3nc(-c4ccc5sc(N)nc5c4)c4c(N)ncnc43)n(-c3ccccc3)c(=O)c12 [Compound 277],< 100 nM,< 1 µM,< 1 µM,< 100 nM
Cc1cccc2cc([C@H](C)Nc3ncnc4[nH]cc(F)c34)n(C3CC3)c(=O)c12 [Compound 278],< 100 nM,< 1 µM,< 0.1 µM,< 100 nM
Cc1cccc2cc([C@H](C)Nc3nc(F)nc4[nH]cnc34)n(C3CC3)c(=O)c12 [Compound 279],< 1000 nM,< 10 µM,< 0.1 µM,< 100 nM
Cc1cccc2cc([C@H](C)Nc3ncnc4[nH]c(Cl)nc34)n(C3CC3)c(=O)c12 [Compound 280],> 10000 nM,> 10 µM,> 10 µM,> 10000 nM
Cc1cccc2cc([C@H](C)Nc3nc(N)ncc3F)n(C3CC3)c(=O)c12 [Compound 281],> 10000 nM,> 10 µM,< 10 µM,< 10000 nM
Cc1cccc2cc([C@H](C)Nc3nc(N)ncc3C(N)=O)n(C3CC3)c(=O)c12 [Compound 282],> 10000 nM,> 10 µM,> 10 µM,> 10000 nM

Compound,IC50 (PI3K γ),IC50 (PI3K α),IC50 (PI3K β),IC50 (PI3K δ)
Cc1cccc2cc([C@H](C)Nc3cc(N)nc(Cl)n3)n(C3CC3)c(=O)c12 [Compound 283],> 10000 nM,> 10 µM,> 10 µM,> 10000 nM
Cc1cccc2cc([C@H](C)Nc3cc(N)nc(N)n3)n(C3CC3)c(=O)c12 [Compound 284],< 10000 nM,> 10 µM,> 10 µM,< 10000 nM
Cc1cccc2cc([C@H](C)Nc3cc(N)nc(Cl)n3)n(-c3ccccc3)c(=O)c12 [Compound 285],< 10000 nM,> 10 µM,> 10 µM,< 1000 nM
Cc1cccc2cc([C@H](C)Nc3cc(N)nc(N)n3)n(-c3ccccc3)c(=O)c12 [Compound 286],< 1000 nM,> 10 µM,> 10 µM,< 1000 nM
Cc1cccc2cc([C@H](C)Nc3ncnc4[nH]cc(C(N)=O)c34)n(C3CC3)c(=O)c12 [Compound 287],< 100 nM,< 1 µM,< 0.1 µM,< 100 nM
Cc1cccc2cc([C@H](C)Nc3ncnc4[nH]cc(C(N)=O)c34)n(-c3ccccc3)c(=O)c12 [Compound 288],< 100 nM,< 1 µM,< 0.1 µM,< 100 nM
Cc1cccc2cc([C@H](C)Nc3ncnc4[nH]cc(C#N)c34)n(C3CC3)c(=O)c12 [Compound 289],< 100 nM,< 1 µM,< 0.1 µM,< 100 nM
Cc1cccc2cc([C@H](C)Nc3ncnc4[nH]cnc34)n(-c3cccc(F)c3)c(=O)c12 [Compound 290],< 100 nM,> 10 µM,< 1 µM,< 100 nM
Cc1cccc2cc([C@H](C)Nc3ncnc4[nH]nc(Cl)c34)n(C3CC3)c(=O)c12 [Compound 293],< 1000 nM,> 10 µM,< 1 µM,< 100 nM
CCc1nn(Cc2cc3cccc(C)c3c(=O)n2-c2ccccc2C)c2ncnc(N)c12 [Compound 294],< 10000 nM,> 10 µM,> 10 µM,< 100 nM
Cc1ccccc1-n1c(Cn2nc(-c3ccc4nc(N)[nH]c4c3)c3c(N)ncnc32)cc2cccc(C)c2c1=O [Compound 295],< 100 nM,< 10 µM,< 10 µM,< 100 nM
CC(=O)Nc1nc2ccc(-c3nn(Cc4cc5cccc(C)c5c(=O)n4-c4ccccc4C)c4ncnc(N)c34)cc2[nH]1 [Compound 296],< 100 nM,< 10 µM,< 10 µM,< 100 nM
Cc1ccccc1-n1c(Cn2nc(C(N)=O)c3c(N)ncnc32)cc2cccc(C)c2c1=O [Compound 298],< 1000 nM,> 10 µM,< 10 µM,< 1000 nM
COC(=O)c1nn(CC2=Cc3cccc(C)c3C(=O)C2c2ccccc2C)c2ncnc(N)c12 (centres unmarked) [Compound 299],< 10000 nM,> 10 µM,> 10 µM,< 1000 nM
Cc1ccccc1-n1c(Cn2nc(C(=O)NO)c3c(N)ncnc32)cc2cccc(C)c2c1=O [Compound 300],< 1000 nM,> 10 µM,< 10 µM,< 1000 nM
Cc1cccc2cc(Cn3nc(C(F)F)c4c(N)ncnc43)n(-c3ccccc3)c(=O)c12 [Compound 308],< 1000 nM,> 10 µM,< 10 µM,< 100 nM
Cc1cccc2cc(Cn3nc(C4=CCOCC4)c4c(N)ncnc43)n(-c3ccccc3)c(=O)c12 [Compound 315],> 10000 nM,> 10 µM,> 10 µM,> 10000 nM
C=C(C)c1nn(Cc2cc3cccc(C)c3c(=O)n2-c2ccccc2)c2ncnc(N)c12 [Compound 316],< 1000 nM,> 10 µM,< 10 µM,< 100 nM
Cc1cccc2cc(Cn3nc(C(C)C)c4c(N)ncnc43)n(-c3ccccc3)c(=O)c12 [Compound 317],> 10000 nM,> 10 µM,> 10 µM,< 10000 nM
Cc1cccc2cc(C(C)Nc3nc(N)nc4[nH]cnc34)n(-c3ccccc3)c(=O)c12 (centres unmarked) [Compound 320],< 100 nM,< 1 µM,< 0.1 µM,< 100 nM
Cc1cccc2cc(C(C)Nc3nc(O)ncc3N)n(-c3ccccc3)c(=O)c12 (centres unmarked) [Compound 321],> 10000 nM,> 10 µM,> 10 µM,> 10000 nM
Cc1cccc2cc([C@H](C)Nc3nc(N)nc4[nH]cnc34)n(-c3ccccc3)c(=O)c12 [Compound 323],< 100 nM,< 1 µM,< 0.1 µM,< 100 nM
Cc1cccc2cc([C@H](C)Nc3nc(N)ncc3C(F)(F)F)n(-c3ccccc3)c(=O)c12 [Compound 324],< 100 nM,> 10 µM,< 10 µM,< 100 nM
